These results are taken from ChEMBL document CHEMBL4184250, “Structure-activity studies of a macrocyclic peptide inhibitor of histone lysine demethylase 4A” (Bioorg Med Chem, 2018).

Active and inactive are the calls of the source. The rule behind the calls is not given here. Where a SMILES comes first, the peptide text is derived from it. Bridges are numbered along the chain shown (N, C = ends).

The target of data set [1] is T1, Lysine-specific demethylase 4A (Homo sapiens) (UniProt O75164).
T1 sequence (whole entry): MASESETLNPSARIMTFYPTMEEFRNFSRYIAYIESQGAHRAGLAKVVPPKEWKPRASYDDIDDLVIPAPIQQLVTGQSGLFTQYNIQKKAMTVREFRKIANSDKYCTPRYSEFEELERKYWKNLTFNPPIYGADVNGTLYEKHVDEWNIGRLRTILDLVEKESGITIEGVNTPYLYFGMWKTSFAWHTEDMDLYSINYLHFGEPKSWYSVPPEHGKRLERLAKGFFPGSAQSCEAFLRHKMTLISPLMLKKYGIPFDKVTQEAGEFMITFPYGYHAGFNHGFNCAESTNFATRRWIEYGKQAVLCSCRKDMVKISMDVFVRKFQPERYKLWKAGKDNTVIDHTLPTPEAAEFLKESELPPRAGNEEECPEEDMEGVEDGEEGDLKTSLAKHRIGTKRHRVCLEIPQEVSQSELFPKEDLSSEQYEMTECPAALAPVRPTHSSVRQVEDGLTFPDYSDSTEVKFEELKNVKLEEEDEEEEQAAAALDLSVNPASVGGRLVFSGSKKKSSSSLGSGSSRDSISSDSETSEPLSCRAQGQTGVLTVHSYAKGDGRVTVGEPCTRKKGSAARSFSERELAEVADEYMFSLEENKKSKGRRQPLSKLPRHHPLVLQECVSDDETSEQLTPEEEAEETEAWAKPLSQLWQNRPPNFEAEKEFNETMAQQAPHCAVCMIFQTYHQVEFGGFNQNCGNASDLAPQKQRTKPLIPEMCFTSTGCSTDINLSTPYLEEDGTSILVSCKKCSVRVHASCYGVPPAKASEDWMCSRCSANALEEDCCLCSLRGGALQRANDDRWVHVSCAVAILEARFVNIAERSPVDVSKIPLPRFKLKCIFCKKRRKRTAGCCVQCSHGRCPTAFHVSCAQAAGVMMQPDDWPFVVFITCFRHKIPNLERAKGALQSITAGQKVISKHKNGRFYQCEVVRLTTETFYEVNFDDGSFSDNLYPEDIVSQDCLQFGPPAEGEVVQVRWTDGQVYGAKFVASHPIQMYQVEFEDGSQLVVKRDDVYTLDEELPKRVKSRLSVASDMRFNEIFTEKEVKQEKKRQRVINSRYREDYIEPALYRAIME
The data set is described as follows: Inhibition of full length FLAG-tagged KDM4A (unknown origin) expressed in human HeLa cells assessed as increase in H3K9me3 levels at >20 uM after 24 hrs by DAPI staining based immunofluorescence assay. The class given is cell-based.

The target of data set [2] is T2, Lysine-specific demethylase 4A (Homo sapiens, UniProt O75164).
T2 sequence (O75164 whole entry): T1 sequence (whole entry)
The data set is described as follows: Inhibition of full length FLAG-tagged KDM4A (unknown origin) expressed in human HeLa cells assessed as increase in H3K9me3 levels after 24 hrs by DAPI staining based immunofluorescence assay. The class given is cell-based.

Data set [3] deals with T2, Lysine-specific demethylase 4A. The data set is described as follows: (§1) Binding affinity to biotinylated-KDM4A (unknown origin) at 300 nM by bio-layer interferometric method. The settings on record: read-out: Kd(app). Background: BLI is a label-free optical method that tracks binding on a fibre tip over time.
The nature of data set [4]: Drug uptake in human MCF7 cells assessed as cell area stained at 10 uM after 3 hrs by Hoechst 33342 staining based confocal microscopic analysis. The class given is ADME. The settings on record: mcf7, 3 h.
Data set [5] concerns the target T2, Lysine-specific demethylase 4A. In words: Inhibition of KDM4A (unknown origin) expressed in Escherichia coli using biotinylated peptide as substrate pretreated for 15 mins followed by substrate addition by Alphascreen assay. (Alpha assays give light when donor and acceptor beads are brought close together.)
Data set [6] has as its target T3, Lysine-specific demethylase 4C (Homo sapiens, UniProt Q9H3R0).
T3 sequence (Q9H3R0 whole entry): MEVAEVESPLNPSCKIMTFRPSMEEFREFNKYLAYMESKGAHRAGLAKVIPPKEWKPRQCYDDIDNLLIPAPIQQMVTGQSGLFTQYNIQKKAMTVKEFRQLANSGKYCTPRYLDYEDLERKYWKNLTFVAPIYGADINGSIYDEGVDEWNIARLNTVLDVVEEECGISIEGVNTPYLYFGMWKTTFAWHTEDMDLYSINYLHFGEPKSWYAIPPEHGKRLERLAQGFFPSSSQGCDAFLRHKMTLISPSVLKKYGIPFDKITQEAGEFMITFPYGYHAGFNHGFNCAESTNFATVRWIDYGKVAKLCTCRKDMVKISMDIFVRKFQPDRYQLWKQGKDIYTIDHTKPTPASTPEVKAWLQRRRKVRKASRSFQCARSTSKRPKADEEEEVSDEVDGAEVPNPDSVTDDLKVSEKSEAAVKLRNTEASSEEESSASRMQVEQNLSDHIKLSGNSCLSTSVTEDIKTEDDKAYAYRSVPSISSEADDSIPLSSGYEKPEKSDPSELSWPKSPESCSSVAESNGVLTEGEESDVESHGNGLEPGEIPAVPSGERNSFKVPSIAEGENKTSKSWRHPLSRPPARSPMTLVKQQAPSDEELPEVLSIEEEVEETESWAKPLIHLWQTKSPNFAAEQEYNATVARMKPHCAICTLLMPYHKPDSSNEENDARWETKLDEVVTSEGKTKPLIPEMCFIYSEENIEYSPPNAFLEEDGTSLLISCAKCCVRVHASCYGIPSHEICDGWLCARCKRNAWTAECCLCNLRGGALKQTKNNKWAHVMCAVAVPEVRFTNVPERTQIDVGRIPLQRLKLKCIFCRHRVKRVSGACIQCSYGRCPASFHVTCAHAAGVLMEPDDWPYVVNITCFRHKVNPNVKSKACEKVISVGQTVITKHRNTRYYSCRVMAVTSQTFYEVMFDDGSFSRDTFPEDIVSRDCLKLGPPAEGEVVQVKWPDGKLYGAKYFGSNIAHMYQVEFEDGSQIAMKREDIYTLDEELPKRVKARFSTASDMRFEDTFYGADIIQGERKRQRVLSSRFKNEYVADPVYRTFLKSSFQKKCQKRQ
The data set is described as follows: Inhibition of KDM4C (unknown origin) expressed in Escherichia coli using biotinylated peptide as substrate pretreated for 15 mins followed by substrate addition by Alphascreen assay.

In data set [7] the target is T2, Lysine-specific demethylase 4A. In words: Binding affinity to N-terminal His6-tagged KDM4A (1 to 359 residues) (unknown origin) expressed in Escherichia coli BL21(DE3) Rosetta by bio-layer interferometric method. The settings on record: read-out: Kd(app).
For data set [8] the target is unchanged. The data set is described as follows: Stabilization of FLAG-tagged KDM4A (1 to 1064 residues) (unknown origin) expressed in human U2OS cells measured after 3 hrs by CETSA. The class given is cell-based.
Data set [9] deals with T1, Lysine-specific demethylase 4A (Homo sapiens). Described as §1.
Data set [10] in a line: Drug localization in lysosomes of human MCF7 cells at 10 uM after 3 hrs by Lysotracker red DND-99 staining based confocal microscopic analysis. The class given is ADME, subcellular, Lysosome. As to conditions: mcf7, 3 h.
Data set [11] has as its system HeLa. The data set is described as follows: Cytotoxicity against human HeLa cells expressing FLAG-tagged KDM4A assessed as reduction in cell numbers at >5 uM after 24 hrs by DAPI staining based immunofluorescence assay.
Data set [12] relates to HeLa. In words: Cytotoxicity against human HeLa cells expressing FLAG-tagged KDM4A assessed as condensed nucleus at 50 uM after 24 hrs by DAPI staining based immunofluorescence assay. The class given is cell-based.

As for `CC[C@H](C)[C@@H]1NC(=O)[C@H](CCCNC(=N)N)NC(=O)[C@H]([C@@H](C)CC)N(C)C(=O)[C@H](Cc2ccc(O)cc2)NC(=O)CSC[C@@H](C(N)=O)N(C)C(=O)[C@H](Cc2c[nH]c3ccccc23)NC(=O)[C@H](CC(C)C)NC(=O)[C@H](Cc2c[nH]c3ccccc23)NC(=O)[C@@H](C)NC(=O)[C@H](CO)NC(=O)[C@H](CCCNC(=N)N)NC(=O)[C@H](CCCNC(=N)N)NC1=O`, the inhibition entry in [1] was “Active”. Moreover, the EC50 in data set [2] is greater than 50 µM. In addition, the Kd in data set [3] turned out to be 0.023 µM. In addition, the Drug uptake in data set [4] was determined as 7.4%. The concentration for half-maximal inhibition (IC50) in [5] was 0.017 µM; in data set [6], 0.027 µM.

Regarding `CC(C)[C@@H]1NC(=O)[C@@H](Cc2ccc(O)cc2)NC(=O)CSC[C@@H](C(N)=O)NC(=O)[C@H](Cc2c[nH]c3ccccc23)NC(=O)[C@H](Cc2ccc(O)cc2)NC(=O)[C@H](Cc2c[nH]c3ccccc23)NC(=O)[C@H](CCCNC(=N)N)NC(=O)[C@H](Cc2c[nH]c3ccccc23)NC(=O)CNC(=O)[C@H](CO)NC(=O)[C@H](CCCNC(=N)N)NC(=O)[C@H]([C@@H](C)O)NC(=O)[C@H](CC(N)=O)NC(=O)[C@H](Cc2ccc(O)cc2)NC1=O`, the Kd in data set [7] is 0.0298 µM. Besides, the Drug uptake in data set [4] came to 17.4%. In addition, the results for the IC50 in [5] and in data set [6] were 0.041 µM and 0.046 µM, respectively. Moreover, the EC50 in data set [8] is greater than 100 µM.

Take `CC[C@H](C)[C@@H]1NC(=O)CNC(=O)[C@H](CO)NC(=O)[C@H](CCCNC(=N)N)NC(=O)[C@H](CCCNC(=N)N)NC(=O)[C@H](Cc2ccccc2)NC(=O)[C@H](CCCNC(=N)N)NC(=O)[C@H]([C@H](C)O)NC(=O)[C@@H](Cc2ccc(O)cc2)NC(=O)CSC[C@@H](C(N)=O)NC(=O)[C@H](Cc2ccc(O)cc2)NC(=O)[C@H](Cc2ccc(O)cc2)NC(=O)[C@H](Cc2ccccc2)NC(=O)[C@H](C(C)C)NC1=O`: in data set [1], the inhibition result was “Active”.

On to `CC[C@H](C)[C@@H]1NC(=O)[C@H](CCCNC(=N)N)NC(=O)[C@@H]2CCCN2C(=O)[C@H](Cc2ccc(O)cc2)NC(=O)CSC[C@@H](C(N)=O)N(C)C(=O)[C@H](Cc2c[nH]c3ccccc23)NC(=O)[C@H](CCCNC(=N)N)NC(=O)[C@H]([C@@H](C)CC)NC(=O)[C@@H](C)NC(=O)[C@H](CO)NC(=O)[C@H](CCCNC(=N)N)NC(=O)[C@H](CCCNC(=N)N)NC1=O`, for which the EC50 in data set [2] was greater than 50 µM. Besides, the “Kd(app)” value in data set [9] was “inactive”. For the same compound, in data set [4], the Drug uptake was determined as 1.2%. For the same compound, the IC50 in data set [5] is 0.269 µM; in data set [6] it was 0.065 µM.

As to `CC[C@H](C)[C@@H]1NC(=O)CNC(=O)[C@H](CO)NC(=O)[C@H](CCCNC(=N)N)NC(=O)[C@H](CCCNC(=N)N)NC(=O)[C@H]([C@@H](C)CC)NC(=O)[C@H](CCCNC(=N)N)NC(=O)[C@@H]2CCCN2C(=O)[C@H](Cc2ccc(O)cc2)NC(=O)CSC[C@@H](C(N)=O)NC(=O)[C@H](Cc2c[nH]c3ccccc23)NC(=O)[C@H](CCCNC(=N)N)NC1=O` ({CH2CO}-YPRIRRSGIRWC-NH2; thioether N-12), the Drug uptake result is “Active” in [10] and 76.8% in [4]. The EC50 in data set [2] is greater than 50 µM. Besides, the Kd in [3] is greater than 0.3 µM. Besides, the IC50 amounted to 0.615 µM in [5] and 0.466 µM in [6].

Regarding `CC[C@H](C)[C@@H]1NC(=O)CNC(=O)[C@H](CO)NC(=O)[C@H](CCCNC(=N)N)NC(=O)[C@H](CCCNC(=N)N)NC(=O)[C@H](Cc2ccccc2)NC(=O)[C@H](CCCNC(=N)N)NC(=O)[C@H]([C@@H](C)O)NC(=O)[C@@H](Cc2ccc(O)cc2)NC(=O)CSC[C@@H](C(N)=O)NC(=O)[C@H](Cc2ccc(O)cc2)NC(=O)[C@H](Cc2ccc(O)cc2)NC(=O)[C@H](Cc2ccccc2)NC(=O)[C@H](C(C)C)NC1=O`, the Activity result in data set [11] and in data set [12] was “Toxic” in each case. The EC50 in [2] was greater than 50 µM. Besides, the Kd in [3] is 0.0026 µM. Besides, the Drug uptake in data set [4] came out at 13.4%.

Usually EC50 stands for the concentration at which the effect is half-maximal. What is called IC50 is the concentration that inhibits the measured activity by half.
